Data from PMC11227536, “Modulation of the Meisenheimer complex metabolism of nitro-benzothiazinones by targeted C-6 substitution” (Communications Chemistry, 2024).
≈ marks a conversion by molar mass, not a printed value.

Tests used:
Assay type in all cases: cell-based
Cytotoxicity assay = conditions: human, n = 4
Experimental: (§1) Supplementary Method 5: Biological Assays […]
(§2) 2. Proliferation and cytotoxicity assay
(§3) Cells and culture conditions
(§4) The following cell lines and media were used:
(§5) Cell line Cell culture medium
(§6) Cells were grown in the appropriate cell culture medium supplemented with 10 mL/L ultraglutamine 1 […]
(§7) heat inactivated fetal bovine serum (GIBCO Life Technologies 10270-106) at 37 °C in 5% CO 2 in high density polyethylene flasks (NUNC 156340).
(§8) To decide if the compounds have an antiproliferative and/or a cytotoxic effect on human cells, cell death and retardation of cell proliferation were assessed. Under our experimental conditions, the optical density measured from the CellTiter-Blue® reagent and methylene blue assay is proportional to the […]
(§9) The test substances were dissolved in DMSO and further diluted in the cell culture medium. The adherent cells were harvested at the logarithmic growth phase after soft trypsinization using 0.25% trypsin in PBS containing 0.02% EDTA (Biochrom KG L2163). For each experiment, approximately 10,000 cells were seeded with 0.1 mL culture medium per well of the 96-well microplates (HUVEC: flat bottomed NUNC 167008, K-562: round bottomed NUNC 163320). […]
For the cytotoxicity assay, HeLa cells were preincubated for 48 hours without the test substances. To test the cytotoxic effect on HeLa, dilutions of the compounds were carried out carefully on the subconfluent monolayers of HeLa cells after the preincubation time. After incubation time, the cytolytic effect of compounds was analysed in comparison to the negative control. The 50% cytotoxic concentration (CC 50 ) was defined as the test compound concentration required for destruction of the cell monolayer by 50% compared to untreated control.
(§10) Cells were incubated with dilutions of the test substances in microplates for 72 hours at 37 °C in a humidified atmosphere and 5% CO 2. […]
(§11) cytotoxicity and the inhibition of cell proliferation. The number of viable cells was determined subsequent to staining with CellTiter-Blue® reagent or methylene blue. […]
(§12) HUVEC and HeLa cells: The adherent HUVEC and HeLa cells were fixed by glutaraldehyde (MERCK […]
(§13) gently washing, the stain was eluted by adding 0.2 mL of hydrochloric acid (0.33 M) to each well. The optical densities were measured at 660 nm (methylene blue) in SUNRISE microplate reader (TECAN).
(§14) General remarks: Signals from the methylene blue and CellTiter-Blue® reagent are proportional to the number of viable cells. A repeat determination has been conducted in all experiments, four replicates were assayed. The calculations of the different values of GI 50 and CC 50 were performed with the software

K-562 = experiment: Proliferation assay; conditions: Homo sapiens, K562; 72 h, n = 4
Experimental: as §1, §2, §3, §4, §5, §6, §7, §8
as §9, with “163320). To test the antiproliferative” for “163320).”
(§15) effect of test compounds on HUVEC and K-562, the cells were incubated for 72 hours in plates prepared with control and different dilutions of test substances. […]
(§16) of proliferation compared to the untreated control. […]
as §10
cytotoxicity and the inhibition of cell proliferation. The number of viable cells was determined subsequent to staining with CellTiter-Blue® reagent or methylene blue.
K-562 cells: The influence of test substances on cell proliferation of K-562 was determined via the CellTiter-Blue® assay (PROMEGA). Briefly, viable cells are able to reduce the indicator dye resazurin […]
dye. Thus, formation of resorufin was followed by measuring absorption at 570 nm and subtracting absorption measured at 600 nm. […]
as §14

HUVEC = experiment: Proliferation assay; conditions: Homo sapiens, 72 h, n = 4
Experimental: as §1, §2, §3, §4, §5, §6, §7, §8
as §9, with “163320). To test the antiproliferative” for “163320).”
as §15, §16, §10, §11, §12, §13, §14

[1] = test system: Mycobacterium vaccae (JMRC:STI:10670); experiment: MIC determination; conditions: for antimycobacterial activity (in words): M. vaccae; for MIC: Mycolicibacterium vaccae, n = 1; for Selectivity index: ratio between CC50 (HeLa) and MIC M. vaccae
Experimental: Supplementary Method 5: Biological Assays
Minimal inhibitory concentrations were determined against Mycobacterium vaccae (JMRC:STI:10670) and Mycobacterium smegmatis (JMRC:STH:00056). M. vaccae and M. smegmatis cultures were grown 48 h at 32 °C in a medium consisting of glycerol (1%), beef extract (0.5%), peptone from casein (0.5%) and sodium chloride (0.3%). Serial dilutions of the DMSO test item solutions (1 mg∙mL -1) were prepared at 100 µL scale in 96 well plates in Mueller Hinton broth starting at 200 µg∙mL -1 (highest) to cover a final concentration range of 100 to 0.05 µg∙mL -1. Each plate was equipped with a series of DMSO and ciprofloxacin dilutions as quality controls. 96 well plates were inoculated with 100 µL diluted culture (Mueller Hinton bullion) at a final concentration of 5∙10 5 and incubated at 37 °C for 42 h. Growth/no growth was visually inspected.
as §2, §3, §4, §5, §6, §7, §8
The test substances were dissolved in DMSO and further diluted in the cell culture medium. The adherent cells were harvested at the logarithmic growth phase after soft trypsinization using 0.25% trypsin in PBS containing 0.02% EDTA (Biochrom KG L2163). For each experiment, approximately 10,000 cells were seeded with 0.1 mL culture medium per well of the 96-well microplates (HUVEC: flat bottomed NUNC 167008, K-562: round bottomed NUNC 163320). To test the antiproliferative

Row | SMILES | CC50 at 72 h (Cytotoxicity assay) [µM] | GI50 (K-562) [µM] | GI50 (HUVEC) [µM] | antimycobacterial activity (in words) [1] | MIC [1] [µM] | Selectivity index [1] | MIC ([1]; 42 h) [µM]
1 | C[C@H]1COC2(CCN(c3nc(=O)c4cc(I)cc([N+](=O)[O-])c4s3)CC2)O1 [Compound 10] | > 102 | > 102 | > 102 | similarly active as BTZ-043 (1) | 0.006 (≈ 0.00294 µg/mL) | > 16114 | 
2 | CON(C)C(=O)c1cc([N+](=O)[O-])c2sc(N3CCC4(CC3)OC[C@H](C)O4)nc(=O)c2c1 [Compound 7f] | > 111 | > 111 | 98.5 ± 3.3 |  | 13.9 (≈ 6.26 µg/mL) | > 8 | 
3 | C[C@H]1COC2(CCN(c3nc(=O)c4cc(Br)cc([N+](=O)[O-])c4s3)CC2)O1 [Compound 11] | > 113 | > 113 | > 113 | similarly active as BTZ-043 (1) | 0.004 (≈ 0.00177 µg/mL) | > 31236 | 
4 | CC(C)OC(=O)c1cc([N+](=O)[O-])c2sc(N3CCC4(CC3)OC[C@H](C)O4)nc(=O)c2c1 [Compound 6c] | > 111 | > 111 | > 111 |  | 0.22 (≈ 0.0989 µg/mL) | > 500 | 
5 | C[C@H]1COC2(CCN(c3nc(=O)c4cc(C(=O)N(C)C)cc([N+](=O)[O-])c4s3)CC2)O1 [Compound 7c] | > 115 | > 115 | > 115 |  | 28.8 (≈ 12.5 µg/mL) | > 4 | 
6 | C[C@H]1COC2(CCN(c3nc(=O)c4cc(C(=O)O)cc([N+](=O)[O-])c4s3)CC2)O1 [Compound 8] | > 123 | > 123 | > 123 | moderate activity | 0.98 (≈ 0.399 µg/mL) | > 125 | 
7 | COC(=O)c1cc([N+](=O)[O-])c2sc(N3CCC4(CC3)OC[C@H](C)O4)nc(=O)c2c1 [Compound 6a] | > 119 | 66.9 ± 12.6 | 80.6 ± 5 |  | 0.24 (≈ 0.101 µg/mL) | > 500 | 
8 | C[C@H]1COC2(CCN(c3nc(=O)c4cc(C#N)cc([N+](=O)[O-])c4s3)CC2)O1 [Compound 9] | > 129 | 94.4 ± 5.9 | 49.9 ± 4.1 | similarly active as BTZ-043 (1) | 0.016 (≈ 0.00621 µg/mL) | > 8062 | 
9 | C[C@H]1COC2(CCN(c3nc(=O)c4cccc([N+](=O)[O-])c4s3)CC2)O1 [Compound 23] | > 138 | > 138 | > 137 | significantly lower activity than 1 |  | > 125 | 1.1 (≈ 0.4 µg/mL)
